Tests used:
[1] = target: human full-length recombinant HPK1 (Homo sapiens (Human), UniProt Q92918); experiment: HPK1 biochemical enzyme assay, microfluidic mobility shift assay (MSA); settings: HPK1 mobility shift assay; read-out: HPK1 Enzyme Assay_Ki
[2] = test system: phospho-SLP-76 (Ser376) in Jurkat cells; experiment: Phospho-SLP-76 (Ser376) Homogeneous Time Resolved Fluorescence (HTRF) assay in Jurkat cells; type: cell-based; settings: Homo sapiens, Phospho-SLP-76 (Ser376) HTRF, anti-CD3 stimulation, read-out: SLP76 Assay_IC50
Summary of the method: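 Phospho-SLP-76 in lysates was read by sandwich HTRF and IC50 derived by four-parameter nonlinear regression. Before lysis, cells had received compound for 30 min (11-point, 3-fold series from 10 μM, 0.1% DMSO), followed by anti-CD3 F(ab)2 complex (200 μg/mL, 15 min, 37 °C).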

human full-length recombinant HPK1, sequence (Q92918 whole entry): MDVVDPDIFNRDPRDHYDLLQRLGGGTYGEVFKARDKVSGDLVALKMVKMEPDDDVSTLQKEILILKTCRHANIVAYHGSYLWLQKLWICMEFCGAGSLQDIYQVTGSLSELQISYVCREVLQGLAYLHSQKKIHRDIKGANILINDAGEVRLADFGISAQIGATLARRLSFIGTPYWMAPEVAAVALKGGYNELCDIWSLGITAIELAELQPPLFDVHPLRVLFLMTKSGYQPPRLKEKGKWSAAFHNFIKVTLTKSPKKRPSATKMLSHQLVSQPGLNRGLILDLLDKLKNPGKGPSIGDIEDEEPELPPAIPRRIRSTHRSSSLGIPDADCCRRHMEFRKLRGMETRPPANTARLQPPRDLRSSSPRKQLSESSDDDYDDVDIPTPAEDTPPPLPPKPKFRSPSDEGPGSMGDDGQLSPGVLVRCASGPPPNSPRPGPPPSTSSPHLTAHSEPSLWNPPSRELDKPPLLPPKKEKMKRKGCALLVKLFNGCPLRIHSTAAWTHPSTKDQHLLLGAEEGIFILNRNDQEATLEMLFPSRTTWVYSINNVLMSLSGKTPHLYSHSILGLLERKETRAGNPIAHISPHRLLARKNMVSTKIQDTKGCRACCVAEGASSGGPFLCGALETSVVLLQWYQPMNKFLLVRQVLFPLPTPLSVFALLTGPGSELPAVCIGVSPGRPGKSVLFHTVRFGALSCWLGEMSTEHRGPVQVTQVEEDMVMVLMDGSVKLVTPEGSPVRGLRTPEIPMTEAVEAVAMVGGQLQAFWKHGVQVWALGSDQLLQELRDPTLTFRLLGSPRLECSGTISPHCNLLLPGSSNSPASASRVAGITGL

Q: For CCCn1cnnc1-c1cccc(N2Cc3c(cc(C4(C)CC4)nc3CN)C2=O)n1 [Example 90, 4-(aminomethyl)-6-(1-methylcyclopropyl)-2-[6-(4-propyl-4H-1,2,4-triazol-3-yl)pyridin-2-yl]-2,3-dihydro-1H-pyrrolo[3,4-c]pyridin-1-one], which Ki [1] is on record?
A: 1.46 nM

Q: And the IC50 [2]?
A: 694 nM

Q: What does the source list for CNCc1nc(C2(C)CC2)cc2c1CN(c1cccc(N3C(=O)OC[C@@H]3CF)n1)C2=O [Example 91, 2-{6-[(4R)-4-(fluoromethyl)-2-oxo-1,3-oxazolidin-3-yl]pyridin-2-yl}-4-[(methylamino)methyl]-6-(1-methylcyclopropyl)-2,3-dihydro-1H-pyrrolo[3,4-c]pyridin-1-one]?
A: Ki [1]: 0.33 nM; IC50 [2]: 257 nM

Q: How did the Ki [1] turn out when CCn1cnnc1-c1cccc(N2Cc3c(cc(N4CCC4)nc3CNC)C2=O)n1 [Example 92, 6-(azetidin-1-yl)-2-[6-(4-ethyl-4H-1,2,4-triazol-3-yl)pyridin-2-yl]-4-[(methylamino)methyl]-2,3-dihydro-1H-pyrrolo[3,4-c]pyridin-1-one] was run?
A: 0.43 nM

Q: And the IC50 [2]?
A: 226 nM

Q: For CCCn1cnnc1-c1cccc(N2Cc3c(cc(N4CCC4)nc3CNC)C2=O)n1 [Example 93, 6-(azetidin-1-yl)-4-[(methylamino)methyl]-2-[6-(4-propyl-4H-1,2,4-triazol-3-yl)pyridin-2-yl]-2,3-dihydro-1H-pyrrolo[3,4-c]pyridin-1-one], which Ki [1] is on record?
A: 0.42 nM

Q: What about the IC50 [2] of the same molecule?
A: 713 nM

Q: With CCCn1cnnc1-c1cccc(N2Cc3c(cc(C4(C)CC4)nc3CNC)C2=O)n1 [Example 94, 4-[(methylamino)methyl]-6-(1-methylcyclopropyl)-2-[6-(4-propyl-4H-1,2,4-triazol-3-yl)pyridin-2-yl]-2,3-dihydro-1H-pyrrolo[3,4-c]pyridin-1-one] as the molecule, how does the Ki [1] read?
A: 0.34 nM

Q: And the IC50 [2]?
A: 280 nM

Q: What does the source list for CCn1cnnc1-c1cccc(N2Cc3c(cc(C4(C)CC4)nc3CNC)C2=O)n1 [Example 95, 2-[6-(4-ethyl-4H-1,2,4-triazol-3-yl)pyridin-2-yl]-4-[(methylamino)methyl]-6-(1-methylcyclopropyl)-2,3-dihydro-1H-pyrrolo[3,4-c]pyridin-1-one]?
A: Ki [1]: 0.51 nM; IC50 [2]: 168 nM

Q: How did the Ki [1] turn out when CCN(CC)c1cc2c(c(CNC)n1)CN(c1cccc(-c3cnc(C)n3CC)n1)C2=O [Example 96, 6-(diethylamino)-2-[6-(1-ethyl-2-methyl-1H-imidazol-5-yl)pyridin-2-yl]-4-[(methylamino)methyl]-2,3-dihydro-1H-pyrrolo[3,4-c]pyridin-1-one] was run?
A: 0.4 nM

Q: What about the IC50 [2] of the same molecule?
A: 142 nM

Q: Which results are given for CCN(CC)c1cc2c(c(CNC)n1)CN(c1cccc(-c3nnc(C)n3CC)n1)C2=O [Example 97, 6-(diethylamino)-2-[6-(4-ethyl-5-methyl-4H-1,2,4-triazol-3-yl)pyridin-2-yl]-4-[(methylamino)methyl]-2,3-dihydro-1H-pyrrolo[3,4-c]pyridin-1-one]?
A: Ki [1]: 0.34 nM; IC50 [2]: 186 nM

Q: Which Ki [1] does the source give for CCN(c1cc2c(c(CNC)n1)CN(c1cccc(N3C(=O)OC[C@@H]3CF)n1)C2=O)C(C)C [Example 98, 6-[ethyl(propan-2-yl)amino]-2-{6-[(4R)-4-(fluoromethyl)-2-oxo-1,3-oxazolidin-3-yl]pyridin-2-yl}-4-[(methylamino)methyl]-2,3-dihydro-1H-pyrrolo[3,4-c]pyridin-1-one] here?
A: 0.96 nM

Q: What about the IC50 [2] of the same molecule?
A: 514 nM

Q: With CC(C)N(C)c1cc2c(c(CN)n1)CN(c1cccc(N3C(=O)OC[C@@H]3C)n1)C2=O [Example 100, 4-(aminomethyl)-2-{6-[(4S)-4-methyl-2-oxo-1,3-oxazolidin-3-yl]pyridin-2-yl}-6-[methyl(propan-2-yl)amino]-2,3-dihydro-1H-pyrrolo[3,4-c]pyridin-1-one] as the molecule, how does the Ki [1] read?
A: < 0.05 nM

Q: And the IC50 [2]?
A: 34 nM

Q: Which Ki [1] does the source give for CCn1cnnc1-c1cccc(N2Cc3c(cc(C4CCC4)nc3CNC)C2=O)n1 [Example 101, 6-cyclobutyl-2-[6-(4-ethyl-4H-1,2,4-triazol-3-yl)pyridin-2-yl]-4-[(methylamino)methyl]-2,3-dihydro-1H-pyrrolo[3,4-c]pyridin-1-one] here?
A: 0.94 nM

Q: What about the IC50 [2] of the same molecule?
A: 217 nM

Q: Which results are given for [2H]C([2H])([2H])C([2H])([2H])N(c1cc2c(c(CNC)n1)CN(c1cccc(-c3nncn3CC)n1)C2=O)C([2H])([2H])C([2H])([2H])[2H] [Example 102, 6-{bis[(pentadeuterio)ethyl]amino}-2-[6-(4-ethyl-4H-1,2,4-triazol-3-yl)pyridin-2-yl]-4-[(methylamino)methyl]-2,3-dihydro-1H-pyrrolo[3,4-c]pyridin-1-one]?
A: Ki [1]: 0.29 nM; IC50 [2]: 74 nM

Q: Which results are given for CCCn1cnnc1-c1cccc(N2Cc3c(cc(C4CCC4)nc3CNC)C2=O)n1 [Example 103, 6-cyclobutyl-4-[(methylamino)methyl]-2-[6-(4-propyl-4H-1,2,4-triazol-3-yl)pyridin-2-yl]-2,3-dihydro-1H-pyrrolo[3,4-c]pyridin-1-one]?
A: Ki [1]: 1.15 nM; IC50 [2]: 199 nM

Q: Which Ki [1] does the source give for CNCc1nc(N2CCC[C@H]2C)cc2c1CN(c1cccc(-c3nncn3C(C)C)n1)C2=O [Example 104, 4-[(methylamino)methyl]-6-[(2R)-2-methylpyrrolidin-1-yl]-2-{6-[4-(propan-2-yl)-4H-1,2,4-triazol-3-yl]pyridin-2-yl}-2,3-dihydro-1H-pyrrolo[3,4-c]pyridin-1-one] here?
A: 0.13 nM

Q: And the IC50 [2]?
A: 51 nM

Q: Which results are given for CCCn1cnnc1-c1cccc(N2Cc3c(cc(N4[C@H](C)CC[C@H]4C)nc3CNC)C2=O)n1 [Example 105, 6-[(2R,5R)-2,5-dimethylpyrrolidin-1-yl]-4-[(methylamino)methyl]-2-[6-(4-propyl-4H-1,2,4-triazol-3-yl)pyridin-2-yl]-2,3-dihydro-1H-pyrrolo[3,4-c]pyridin-1-one]?
A: Ki [1]: 0.21 nM; IC50 [2]: 64 nM

Q: Which results are given for CCn1cnnc1-c1cccc(N2Cc3c(cc(N4[C@H](C)CC[C@H]4C)nc3CNC)C2=O)n1 [Example 106, 6-[(2R,5R)-2,5-dimethylpyrrolidin-1-yl]-2-[6-(4-ethyl-4H-1,2,4-triazol-3-yl)pyridin-2-yl]-4-[(methylamino)methyl]-2,3-dihydro-1H-pyrrolo[3,4-c]pyridin-1-one]?
A: Ki [1]: 0.26 nM; IC50 [2]: 83 nM

Q: For CC(C)n1cnnc1-c1cccc(N2Cc3c(cc(N4CCC[C@H]4C)nc3CN)C2=O)n1 [Example 107, 4-(aminomethyl)-6-[(2R)-2-methylpyrrolidin-1-yl]-2-{6-[4-(propan-2-yl)-4H-1,2,4-triazol-3-yl]pyridin-2-yl}-2,3-dihydro-1H-pyrrolo[3,4-c]pyridin-1-one], which Ki [1] is on record?
A: 0.04 nM

Q: What about the IC50 [2] of the same molecule?
A: 22 nM

Q: What does the source list for CCN(c1cc2c(c(CNC)n1)CN(c1cccc(-c3nncn3C)n1)C2=O)C(C)C [Example 108, 6-[ethyl(propan-2-yl)amino]-4-[(methylamino)methyl]-2-[6-(4-methyl-4H-1,2,4-triazol-3-yl)pyridin-2-yl]-2,3-dihydro-1H-pyrrolo[3,4-c]pyridin-1-one]?
A: Ki [1]: 3.7 nM; IC50 [2]: 583 nM

Q: For CNCc1nc(N2CCCC2(C)C)cc2c1CN(c1cccc(-c3nncn3C(C)C)n1)C2=O [Example 109, 6-(2,2-dimethylpyrrolidin-1-yl)-4-[(methylamino)methyl]-2-{6-[4-(propan-2-yl)-4H-1,2,4-triazol-3-yl]pyridin-2-yl}-2,3-dihydro-1H-pyrrolo[3,4-c]pyridin-1-one], which Ki [1] is on record?
A: 0.06 nM

Q: And the IC50 [2]?
A: 12 nM

Q: Which results are given for CCn1cnnc1-c1cccc(N2Cc3c(cc(N4[C@H](C)CC[C@H]4C)nc3CN)C2=O)n1 [Example 110, 4-(aminomethyl)-6-[(2R,5R)-2,5-dimethylpyrrolidin-1-yl]-2-[6-(4-ethyl-4H-1,2,4-triazol-3-yl)pyridin-2-yl]-2,3-dihydro-1H-pyrrolo[3,4-c]pyridin-1-one]?
A: Ki [1]: 0.32 nM; IC50 [2]: 86 nM

Q: For CCn1c(C)nnc1-c1cccc(N2Cc3c(cc(N4[C@H](C)CC[C@H]4C)nc3CNC)C2=O)n1 [Example 111, 6-[(2R,5R)-2,5-dimethylpyrrolidin-1-yl]-2-[6-(4-ethyl-5-methyl-4H-1,2,4-triazol-3-yl)pyridin-2-yl]-4-[(methylamino)methyl]-2,3-dihydro-1H-pyrrolo[3,4-c]pyridin-1-one], which Ki [1] is on record?
A: 1.01 nM

Q: What about the IC50 [2] of the same molecule?
A: 147 nM

Q: For CNCc1nc(N2C[C@@H](C)O[C@@H](C)C2)cc2c1CN(c1cccc(-c3nncn3C(C)C)n1)C2=O [Example 112, 6-[2,6-dimethylmorpholin-4-yl]-4-[(methylamino)methyl]-2-{6-[4-(propan-2-yl)-4H-1,2,4-triazol-3-yl]pyridin-2-yl}-2,3-dihydro-1H-pyrrolo[3,4-c]pyridin-1-one], which Ki [1] is on record?
A: 1.49 nM

Q: And the IC50 [2]?
A: 431 nM

Q: Which Ki [1] does the source give for CCCn1cnnc1-c1cccc(N2Cc3c(cc(N4CCC[C@H]4C(F)(F)F)nc3CNC)C2=O)n1 [Example 113, 4-[(methylamino)methyl]-2-[6-(4-propyl-4H-1,2,4-triazol-3-yl)pyridin-2-yl]-6-[(2S)-2-(trifluoromethyl)pyrrolidin-1-yl]-2,3-dihydro-1H-pyrrolo[3,4-c]pyridin-1-one] here?
A: 0.22 nM

Q: And the IC50 [2]?
A: 83 nM

Q: How did the Ki [1] turn out when CCn1cnnc1-c1cccc(N2Cc3c(cc(N4CCC[C@@H]4C)nc3CNC)C2=O)n1 [Example 114, 2-[6-(4-ethyl-4H-1,2,4-triazol-3-yl)pyridin-2-yl]-4-[(methylamino)methyl]-6-[(2S)-2-methylpyrrolidin-1-yl]-2,3-dihydro-1H-pyrrolo[3,4-c]pyridin-1-one] was run?
A: 0.12 nM

Q: And the IC50 [2]?
A: 37 nM

Q: Which results are given for CCn1cnnc1-c1cccc(N2Cc3c(cc(N4CCC[C@H]4C)nc3CNC)C2=O)n1 [Example 115, 2-[6-(4-ethyl-4H-1,2,4-triazol-3-yl)pyridin-2-yl]-4-[(methylamino)methyl]-6-[(2R)-2-methylpyrrolidin-1-yl]-2,3-dihydro-1H-pyrrolo[3,4-c]pyridin-1-one]?
A: Ki [1]: < 0.09 nM; IC50 [2]: 21 nM
